Source: ChEMBL document CHEMBL5380863 (J Med Chem, 2023)
pIC50: −log10 of the molar value.

What was measured:
HeLa = assay: cells; type: functional, cell-based; details: Homo sapiens, 72 h
MCF7 = assay: cells; type: functional, cell-based; details: Homo sapiens, MCF7, 72 h
HEL = assay: cells; type: functional, cell-based; details: Homo sapiens, 72 h
K562 = assay: cells; type: functional, cell-based; details: Homo sapiens, K562, 72 h
A549 = assay: cells; type: functional, cell-based; details: Homo sapiens, A549, 72 h
HL-60 = assay: cells; type: functional, cell-based; details: Homo sapiens, HL-60, 72 h
PC-3 = assay: cells; type: functional, cell-based; details: Homo sapiens, PC-3, 72 h
[1] = target: Protein deacetylase HDAC6 (Homo sapiens, UniProt Q9UBN7)
Sequence of Protein deacetylase HDAC6 (Q9UBN7 whole entry): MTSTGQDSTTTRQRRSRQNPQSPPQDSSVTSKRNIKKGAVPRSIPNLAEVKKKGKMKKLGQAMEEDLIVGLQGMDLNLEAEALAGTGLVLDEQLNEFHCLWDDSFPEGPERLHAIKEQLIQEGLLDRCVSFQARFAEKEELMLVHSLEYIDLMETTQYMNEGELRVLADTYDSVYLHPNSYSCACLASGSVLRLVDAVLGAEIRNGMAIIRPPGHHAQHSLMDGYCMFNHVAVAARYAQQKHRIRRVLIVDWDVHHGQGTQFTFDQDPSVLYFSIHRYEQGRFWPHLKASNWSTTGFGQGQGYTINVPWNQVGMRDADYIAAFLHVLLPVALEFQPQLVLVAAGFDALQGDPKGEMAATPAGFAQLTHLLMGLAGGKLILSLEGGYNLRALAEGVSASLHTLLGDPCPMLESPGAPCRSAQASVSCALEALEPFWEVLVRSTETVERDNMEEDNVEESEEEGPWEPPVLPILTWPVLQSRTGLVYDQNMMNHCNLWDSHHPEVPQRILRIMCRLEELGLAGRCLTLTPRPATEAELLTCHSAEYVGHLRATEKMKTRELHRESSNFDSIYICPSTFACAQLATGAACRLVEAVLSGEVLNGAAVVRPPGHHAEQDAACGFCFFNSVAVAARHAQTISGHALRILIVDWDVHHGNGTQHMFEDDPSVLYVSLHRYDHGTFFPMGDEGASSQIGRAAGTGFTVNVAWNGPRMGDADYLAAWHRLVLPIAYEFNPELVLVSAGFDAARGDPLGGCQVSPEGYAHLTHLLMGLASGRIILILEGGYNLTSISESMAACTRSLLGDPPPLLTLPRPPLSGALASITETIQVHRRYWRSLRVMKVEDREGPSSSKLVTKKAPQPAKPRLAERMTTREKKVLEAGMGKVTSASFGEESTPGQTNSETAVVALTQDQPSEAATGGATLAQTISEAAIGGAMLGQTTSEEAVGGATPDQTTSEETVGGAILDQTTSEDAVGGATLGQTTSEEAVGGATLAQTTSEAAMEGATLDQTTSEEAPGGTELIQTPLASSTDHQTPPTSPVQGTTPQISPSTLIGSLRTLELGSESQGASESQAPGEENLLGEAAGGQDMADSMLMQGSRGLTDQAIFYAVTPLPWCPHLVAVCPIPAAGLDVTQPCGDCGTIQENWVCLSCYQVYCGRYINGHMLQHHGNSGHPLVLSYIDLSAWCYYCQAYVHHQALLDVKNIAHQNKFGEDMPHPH

in vivo [2] = details: Sprague-Dawley, rat, iv, 3 mg/kg
in vivo [3] = details: Sprague-Dawley, rat, po, 15 mg/kg
in vivo [4] = details: Sprague-Dawley, rat, po, 15 mg/kg; remark: listed apart in the source
Histone deacetylase 5 = Histone deacetylase 5 (Homo sapiens, UniProt Q9UQL6)
Sequence of Histone deacetylase 5 (Q9UQL6 whole entry): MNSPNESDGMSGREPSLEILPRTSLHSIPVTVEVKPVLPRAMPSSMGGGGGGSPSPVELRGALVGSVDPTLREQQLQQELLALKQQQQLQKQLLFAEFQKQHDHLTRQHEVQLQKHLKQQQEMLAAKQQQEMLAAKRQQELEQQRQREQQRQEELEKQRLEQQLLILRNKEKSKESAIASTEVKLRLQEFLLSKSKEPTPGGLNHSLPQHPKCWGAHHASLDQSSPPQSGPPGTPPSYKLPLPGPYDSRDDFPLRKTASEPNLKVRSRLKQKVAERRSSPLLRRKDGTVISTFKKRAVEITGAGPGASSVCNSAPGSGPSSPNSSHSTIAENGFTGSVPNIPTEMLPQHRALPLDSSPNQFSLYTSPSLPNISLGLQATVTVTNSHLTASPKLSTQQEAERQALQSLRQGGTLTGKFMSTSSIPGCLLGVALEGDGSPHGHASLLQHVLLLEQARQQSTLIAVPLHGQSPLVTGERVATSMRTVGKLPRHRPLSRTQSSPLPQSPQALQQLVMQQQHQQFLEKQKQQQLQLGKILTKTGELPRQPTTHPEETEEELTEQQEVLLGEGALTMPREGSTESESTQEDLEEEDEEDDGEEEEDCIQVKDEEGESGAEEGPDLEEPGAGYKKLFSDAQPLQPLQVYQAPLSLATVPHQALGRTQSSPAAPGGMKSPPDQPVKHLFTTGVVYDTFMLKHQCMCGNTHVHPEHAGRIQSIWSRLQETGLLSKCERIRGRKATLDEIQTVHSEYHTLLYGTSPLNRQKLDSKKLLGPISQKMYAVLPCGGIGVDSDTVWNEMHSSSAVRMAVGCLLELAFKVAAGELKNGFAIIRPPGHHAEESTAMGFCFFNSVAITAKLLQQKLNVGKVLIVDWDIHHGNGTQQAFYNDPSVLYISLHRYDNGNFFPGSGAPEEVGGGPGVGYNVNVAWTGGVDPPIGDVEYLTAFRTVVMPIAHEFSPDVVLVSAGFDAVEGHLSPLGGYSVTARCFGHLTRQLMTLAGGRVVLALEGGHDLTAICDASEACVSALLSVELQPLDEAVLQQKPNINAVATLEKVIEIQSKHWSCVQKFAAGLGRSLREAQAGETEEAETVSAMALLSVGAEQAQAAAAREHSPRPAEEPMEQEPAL

Histone deacetylase 7 = Histone deacetylase 7 (Homo sapiens, UniProt Q8WUI4)
in vivo [5] = details: Sprague-Dawley, rat, iv, 3 mg/kg; remark: listed apart in the source
in vitro [6] = details: Sprague-Dawley, rat, plasma
[7] = target: T1, Tyrosine-protein kinase JAK2 (Homo sapiens, UniProt O60674); details: dose 500.0 nM
T1 sequence (O60674 whole entry): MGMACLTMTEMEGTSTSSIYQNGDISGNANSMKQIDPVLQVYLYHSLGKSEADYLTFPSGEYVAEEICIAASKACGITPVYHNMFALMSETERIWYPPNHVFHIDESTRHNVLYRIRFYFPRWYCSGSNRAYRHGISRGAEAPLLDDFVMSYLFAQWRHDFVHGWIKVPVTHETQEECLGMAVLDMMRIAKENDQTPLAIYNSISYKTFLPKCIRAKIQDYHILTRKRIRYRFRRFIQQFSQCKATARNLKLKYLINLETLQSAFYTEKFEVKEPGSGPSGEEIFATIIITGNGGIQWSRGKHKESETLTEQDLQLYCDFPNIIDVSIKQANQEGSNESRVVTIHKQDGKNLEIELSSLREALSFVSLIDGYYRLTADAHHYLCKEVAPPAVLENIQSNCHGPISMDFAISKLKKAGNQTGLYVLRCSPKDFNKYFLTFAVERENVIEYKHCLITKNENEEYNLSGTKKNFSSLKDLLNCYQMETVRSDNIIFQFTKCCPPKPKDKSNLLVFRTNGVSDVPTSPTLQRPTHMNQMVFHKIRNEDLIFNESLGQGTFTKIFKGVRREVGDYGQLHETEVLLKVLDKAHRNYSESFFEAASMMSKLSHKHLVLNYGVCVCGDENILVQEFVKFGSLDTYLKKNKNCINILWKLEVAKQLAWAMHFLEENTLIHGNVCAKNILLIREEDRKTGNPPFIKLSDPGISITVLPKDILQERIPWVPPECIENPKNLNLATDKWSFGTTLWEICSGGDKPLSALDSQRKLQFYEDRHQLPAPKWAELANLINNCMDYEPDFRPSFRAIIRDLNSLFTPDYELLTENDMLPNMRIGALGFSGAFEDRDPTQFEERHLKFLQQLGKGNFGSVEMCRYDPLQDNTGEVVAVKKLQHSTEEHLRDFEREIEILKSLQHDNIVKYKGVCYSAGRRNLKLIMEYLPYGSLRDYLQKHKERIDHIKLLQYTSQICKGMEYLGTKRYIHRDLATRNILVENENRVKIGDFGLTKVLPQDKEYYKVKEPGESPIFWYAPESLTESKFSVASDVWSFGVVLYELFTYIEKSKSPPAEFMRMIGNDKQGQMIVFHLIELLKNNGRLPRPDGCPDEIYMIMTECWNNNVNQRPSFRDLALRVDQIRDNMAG

[8] = target: Tyrosine-protein kinase Fyn (Homo sapiens) (UniProt P06241); details: dose 500.0 nM
Histone deacetylase 4 = Histone deacetylase 4 (Homo sapiens, UniProt P56524)
Histone deacetylase 11 = Histone deacetylase 11 (Homo sapiens, UniProt Q96DB2)
in vivo [9] = details: Sprague-Dawley, rat, po, 15 mg/kg; remark: listed apart in the source
[10] = target: Muscle, skeletal receptor tyrosine-protein kinase (Homo sapiens) (UniProt O15146); details: dose 500.0 nM
[11] = target: Tyrosine-protein kinase JAK3 (Homo sapiens, UniProt P52333)
in vivo [12] = details: Sprague-Dawley, rat, po, 15 mg/kg; remark: listed apart in the source
[13] = target: Polyamine deacetylase HDAC10 (Homo sapiens, UniProt Q969S8)
in vivo [14] = details: Sprague-Dawley, rat, po, 15 mg/kg; remark: listed apart in the source
in vivo [15] = details: Sprague-Dawley, rat, iv, 3 mg/kg; remark: listed apart in the source
in vivo [16] = details: Sprague-Dawley, rat, po, 15 mg/kg; remark: listed apart in the source
in vivo [17] = details: Sprague-Dawley, rat, po, 15 mg/kg; remark: listed apart in the source
Histone deacetylase 2 = Histone deacetylase 2 (Homo sapiens, UniProt Q92769)
Histone deacetylase 9 = Histone deacetylase 9 (Homo sapiens, UniProt Q9UKV0)
Histone deacetylase 1 = Histone deacetylase 1 (Homo sapiens, UniProt Q13547); type: cell-based, HeLa
Histone deacetylase = type: cell-based, Homo sapiens; details: hela
[18] = target: Activated CDC42 kinase 1 (Homo sapiens) (UniProt Q07912); details: dose 500.0 nM
in vivo [19] = details: Sprague-Dawley, rat, iv, 3 mg/kg; remark: listed apart in the source
Histone deacetylase 8 = Histone deacetylase 8 (Homo sapiens, UniProt Q9BY41)
[20] = target: T2, Tyrosine-protein kinase JAK1 (Homo sapiens, UniProt P23458)
T2 sequence (P23458 whole entry): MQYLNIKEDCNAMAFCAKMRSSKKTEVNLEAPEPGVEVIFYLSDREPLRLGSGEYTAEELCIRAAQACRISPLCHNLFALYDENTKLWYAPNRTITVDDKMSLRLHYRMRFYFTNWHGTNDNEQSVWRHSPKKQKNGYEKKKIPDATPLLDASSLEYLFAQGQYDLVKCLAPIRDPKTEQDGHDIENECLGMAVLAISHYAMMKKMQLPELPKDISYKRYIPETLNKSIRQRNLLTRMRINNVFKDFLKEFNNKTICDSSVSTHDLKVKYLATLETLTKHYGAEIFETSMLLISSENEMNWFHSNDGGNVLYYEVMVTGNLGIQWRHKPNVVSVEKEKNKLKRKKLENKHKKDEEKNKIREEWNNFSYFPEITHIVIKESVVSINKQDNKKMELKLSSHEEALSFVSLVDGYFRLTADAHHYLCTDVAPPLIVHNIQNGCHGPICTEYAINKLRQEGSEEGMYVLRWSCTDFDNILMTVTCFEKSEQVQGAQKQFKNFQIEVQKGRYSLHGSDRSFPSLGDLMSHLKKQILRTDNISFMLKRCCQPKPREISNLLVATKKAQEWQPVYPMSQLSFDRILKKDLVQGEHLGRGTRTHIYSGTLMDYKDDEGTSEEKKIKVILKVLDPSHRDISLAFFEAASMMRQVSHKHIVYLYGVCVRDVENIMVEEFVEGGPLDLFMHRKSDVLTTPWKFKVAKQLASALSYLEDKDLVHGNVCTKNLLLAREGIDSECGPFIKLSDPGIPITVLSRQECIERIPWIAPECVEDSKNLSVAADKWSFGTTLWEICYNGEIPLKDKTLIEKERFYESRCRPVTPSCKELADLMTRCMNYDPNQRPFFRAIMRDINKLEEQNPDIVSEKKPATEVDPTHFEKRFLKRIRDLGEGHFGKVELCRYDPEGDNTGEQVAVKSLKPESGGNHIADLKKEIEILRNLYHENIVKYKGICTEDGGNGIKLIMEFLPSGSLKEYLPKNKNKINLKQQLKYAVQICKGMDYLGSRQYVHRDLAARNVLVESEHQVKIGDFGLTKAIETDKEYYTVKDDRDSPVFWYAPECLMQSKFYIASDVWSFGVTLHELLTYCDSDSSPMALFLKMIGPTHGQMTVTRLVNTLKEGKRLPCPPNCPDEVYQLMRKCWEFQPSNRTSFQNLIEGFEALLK

in vivo [21] = details: Sprague-Dawley, rat, iv, 3 mg/kg; remark: listed apart in the source
[22] = rat, in vivo, po, 15 mg/kg, 24 h
[23] = target: T2, Tyrosine-protein kinase JAK1; details: dose 500.0 nM
in vitro [24] = details: Sprague-Dawley, rat, plasma; remark: listed apart in the source
Histone deacetylase 3 = Histone deacetylase 3 (Homo sapiens, UniProt O15379)
Sequence of Histone deacetylase 3 (O15379 whole entry): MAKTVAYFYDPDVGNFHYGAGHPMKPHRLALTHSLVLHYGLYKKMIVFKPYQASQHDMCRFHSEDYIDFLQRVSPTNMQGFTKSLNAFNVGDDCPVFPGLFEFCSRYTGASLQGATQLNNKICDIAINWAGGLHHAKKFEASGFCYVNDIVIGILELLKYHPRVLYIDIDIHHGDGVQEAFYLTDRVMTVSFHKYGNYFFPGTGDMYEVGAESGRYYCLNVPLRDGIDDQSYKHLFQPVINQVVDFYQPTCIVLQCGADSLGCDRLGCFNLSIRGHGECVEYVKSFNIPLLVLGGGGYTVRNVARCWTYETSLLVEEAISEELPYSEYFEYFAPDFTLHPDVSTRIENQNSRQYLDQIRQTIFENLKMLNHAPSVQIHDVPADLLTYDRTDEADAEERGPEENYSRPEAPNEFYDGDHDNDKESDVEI

[25] = target: Non-receptor tyrosine-protein kinase TYK2 (Homo sapiens, UniProt P29597)
[26] = target: T1, Tyrosine-protein kinase JAK2

Structure (SMILES): COc1cc(Nc2ncc(C)c(Nc3cccc(S(=O)(=O)NC(C)(C)C)c3)n2)ccc1OCCCCCCC(=O)NO
- pIC50 (HeLa): 5.14
- pIC50 (MCF7): 5.33
- pIC50 (HEL): 5.78
- pIC50 (K562): 5.26
- pIC50 (A549): 5.83
- pIC50 (HL-60): 5.36
- pIC50 (PC-3): 5.44

Structure (SMILES): Cc1cnc(Nc2ccc(OCCCCCC(=O)NO)c(Cl)c2)nc1Nc1cccc(S(=O)(=O)NC(C)(C)C)c1
- pIC50 (HeLa): 5.14
- pIC50 (MCF7): 5.32
- pIC50 (HEL): 5.90
- pIC50 (K562): 5.36
- pIC50 (A549): 5.69
- pIC50 (HL-60): 5.17
- pIC50 (PC-3): 5.20

Structure (SMILES): Cc1cnc(Nc2ccc(OCCCCCCC(=O)NO)c(Br)c2)nc1Nc1cccc(S(=O)(=O)NC(C)(C)C)c1
- pIC50 (HeLa): 4.92
- pIC50 (MCF7): 5.16
- pIC50 (HEL): 6.14
- pIC50 (K562): 5.68
- pIC50 (A549): 5.67
- pIC50 (HL-60): 4.92
- pIC50 (PC-3): 5.41

Structure (SMILES): Cc1cnc(Nc2ccc(OCCCCCCCC(=O)NO)cc2)nc1Nc1cccc(S(=O)(=O)NC(C)(C)C)c1
- pIC50 (HeLa): 4.96
- pIC50 (MCF7): 5.04
- pIC50 (HEL): 5.78
- pIC50 (K562): 5.15
- pIC50 (A549): 5.53
- pIC50 (HL-60): 5.19
- pIC50 (PC-3): 5.31

Structure (SMILES): Cc1cnc(Nc2ccc(OCCCCCC(=O)NO)cc2)nc1Nc1cccc(S(=O)(=O)NC(C)(C)C)c1
- pIC50 (HeLa): 5.40
- pIC50 (MCF7): 5.49
- pIC50 (HEL): 5.60
- pIC50 (K562): 5.37
- pIC50 (A549): 5.63
- pIC50 (HL-60): 5.59
- pIC50 (PC-3): 5.56

Structure (SMILES): Cc1cnc(Nc2ccc(OCCCCCCC(=O)NO)cc2)nc1Nc1cccc(S(=O)(=O)NC(C)(C)C)c1
- pIC50 [1]: 8.35
- Vd at 24 h (in vivo [2]): 0.845 L/kg
- MRT at 24 h (in vivo [3]): 6.02 h
- half-life at 24 h (in vivo [4]): 2.08 h
- pIC50 (Histone deacetylase 5): < 5.00
- pIC50 (HeLa): 5.54
- pIC50 (Histone deacetylase 7): < 5.00
- clearance at 24 h (in vivo [5]): 76.2 mL/min/kg
- AUC(0-t) at 22 h (in vitro [6]): 217000 ng·h/mL
- inhibition [7]: > 95%
- inhibition [8]: > 95%
- pIC50 (Histone deacetylase 4): < 5.00
- pIC50 (Histone deacetylase 11): 6.14
- CL/F at 24 h (in vivo [9]): 76 mL/min/kg
- inhibition [10]: 70%
- pIC50 [11]: 6.23
- Cmax at 24 h (in vivo [12]): 93.3 ng/mL
- pIC50 [13]: 6.94
- bioavailability at 24 h (in vivo [14]): 22.7%
- half-life at 24 h (in vivo [15]): 7.68 min
- pIC50 (MCF7): 5.74
- AUC(0-t) at 24 h (in vivo [16]): 745 ng·h/mL
- Tmax at 24 h (in vivo [17]): 2.91 h
- pIC50 (Histone deacetylase 2): 6.52
- pIC50 (Histone deacetylase 9): < 5.00
- pIC50 (Histone deacetylase 1): 9.47
- pIC50 (HEL): 6.48
- IC50 (Histone deacetylase): 0.17 nM
- inhibition [18]: 70%
- AUC(0-t) at 24 h (in vivo [19]): 656 ng·h/mL
- pIC50 (Histone deacetylase 8): < 5.00
- pIC50 (K562): 5.73
- pIC50 (A549): 6.14
- pIC50 [20]: 7.57
- MRT at 24 h (in vivo [21]): 0.185 h
- pIC50 (HL-60): 5.59
- Vd [22]: 13.708 L/kg
- inhibition [23]: 80%
- pIC50 (PC-3): 5.60
- half-life at 22 h (in vitro [24]): 11.1 h
- pIC50 (Histone deacetylase 3): 7.23
- pIC50 [25]: 6.38

Structure (SMILES): Cc1cnc(Nc2ccc(OCCCCCCC(=O)NO)c(C(F)(F)F)c2)nc1Nc1cccc(S(=O)(=O)NC(C)(C)C)c1
- pIC50 (HeLa): 5.13
- pIC50 (MCF7): 5.06
- pIC50 (HEL): 5.97
- pIC50 (K562): 5.23
- pIC50 (A549): 5.65
- pIC50 (HL-60): 4.96
- pIC50 (PC-3): 5.31

Structure (SMILES): Cc1cnc(Nc2ccc(OCCCCCCC(=O)NO)c(F)c2)nc1Nc1cccc(S(=O)(=O)NC(C)(C)C)c1
- pIC50 [1]: 8.16
- Vd at 24 h (in vivo [2]): 0.951 L/kg
- MRT at 24 h (in vivo [3]): 5.11 h
- half-life at 24 h (in vivo [4]): 1.81 h
- pIC50 (Histone deacetylase 5): < 5.00
- pIC50 (HeLa): 5.49
- pIC50 (Histone deacetylase 7): < 5.00
- clearance at 24 h (in vivo [5]): 98.3 mL/min/kg
- AUC(0-t) at 22 h (in vitro [6]): 169000 ng·h/mL
- inhibition [8]: 80%
- pIC50 (Histone deacetylase 4): < 5.00
- pIC50 (Histone deacetylase 11): 6.03
- CL/F at 24 h (in vivo [9]): 98.3 mL/min/kg
- inhibition [10]: 80%
- pIC50 [11]: 6.02
- Cmax at 24 h (in vivo [12]): 79.1 ng/mL
- pIC50 [13]: 6.90
- bioavailability at 24 h (in vivo [14]): 21.6%
- half-life at 24 h (in vivo [15]): 6.72 min
- pIC50 (MCF7): 5.70
- AUC(0-t) at 24 h (in vivo [16]): 549 ng·h/mL
- Tmax at 24 h (in vivo [17]): 2.55 h
- pIC50 (Histone deacetylase 2): 6.52
- pIC50 (Histone deacetylase 9): < 5.00
- pIC50 (Histone deacetylase 1): 9.37
- pIC50 (HEL): 6.62
- IC50 (Histone deacetylase): 0.2 nM
- inhibition [18]: 70%
- AUC(0-t) at 24 h (in vivo [19]): 508 ng·h/mL
- pIC50 (Histone deacetylase 8): < 5.00
- pIC50 (K562): 5.91
- pIC50 (A549): 5.90
- pIC50 [20]: 7.39
- MRT at 24 h (in vivo [21]): 0.161 h
- pIC50 (HL-60): 5.47
- Vd [22]: 15.411 L/kg
- inhibition [23]: 80%
- pIC50 (PC-3): 5.52
- half-life at 22 h (in vitro [24]): 8.49 h
- pIC50 (Histone deacetylase 3): 7.13
- pIC50 [25]: 6.11

Structure (SMILES): Cc1cnc(Nc2ccc(OCCCCCC(=O)NO)c(C(F)(F)F)c2)nc1Nc1cccc(S(=O)(=O)NC(C)(C)C)c1
- pIC50 (HeLa): 5.29
- pIC50 (MCF7): 5.53
- pIC50 (HEL): 5.61
- pIC50 (K562): 5.46
- pIC50 (A549): 5.54
- pIC50 (HL-60): 5.16
- pIC50 (PC-3): 5.54

Structure (SMILES): Cc1cnc(Nc2ccc(OCCCC(=O)NO)cc2)nc1Nc1cccc(S(=O)(=O)NC(C)(C)C)c1
- pIC50 [26]: 7.91

Structure (SMILES): Cc1cnc(Nc2ccc(OCCCCCCC(=O)NO)c(Cl)c2)nc1Nc1cccc(S(=O)(=O)NC(C)(C)C)c1
- pIC50 (HeLa): 4.94
- pIC50 (MCF7): 5.22
- pIC50 (HEL): 6.09
- pIC50 (K562): 5.33
- pIC50 (A549): 5.84
- pIC50 (HL-60): 5.15
- pIC50 (PC-3): 5.39

Structure (SMILES): Cc1cnc(Nc2ccc(OCC(=O)NO)cc2)nc1Nc1cccc(S(=O)(=O)NC(C)(C)C)c1
- pIC50 [26]: 8.36

Structure (SMILES): Cc1cc(Nc2ncc(C)c(Nc3cccc(S(=O)(=O)NC(C)(C)C)c3)n2)ccc1OCCCCCCC(=O)NO
- pIC50 (HeLa): < 4.30
- pIC50 (MCF7): 5.05
- pIC50 (HEL): 5.76
- pIC50 (K562): 5.05
- pIC50 (A549): 5.51
- pIC50 (HL-60): 5.31
- pIC50 (PC-3): 5.31
